The values that follow come from paper PMC5397323 (Biopharmaceutics & drug disposition, 2017).

The target of data set [1] is T1, OATP2B1 (Homo sapiens, UniProt O94956).
T1 sequence (O94956 1-709): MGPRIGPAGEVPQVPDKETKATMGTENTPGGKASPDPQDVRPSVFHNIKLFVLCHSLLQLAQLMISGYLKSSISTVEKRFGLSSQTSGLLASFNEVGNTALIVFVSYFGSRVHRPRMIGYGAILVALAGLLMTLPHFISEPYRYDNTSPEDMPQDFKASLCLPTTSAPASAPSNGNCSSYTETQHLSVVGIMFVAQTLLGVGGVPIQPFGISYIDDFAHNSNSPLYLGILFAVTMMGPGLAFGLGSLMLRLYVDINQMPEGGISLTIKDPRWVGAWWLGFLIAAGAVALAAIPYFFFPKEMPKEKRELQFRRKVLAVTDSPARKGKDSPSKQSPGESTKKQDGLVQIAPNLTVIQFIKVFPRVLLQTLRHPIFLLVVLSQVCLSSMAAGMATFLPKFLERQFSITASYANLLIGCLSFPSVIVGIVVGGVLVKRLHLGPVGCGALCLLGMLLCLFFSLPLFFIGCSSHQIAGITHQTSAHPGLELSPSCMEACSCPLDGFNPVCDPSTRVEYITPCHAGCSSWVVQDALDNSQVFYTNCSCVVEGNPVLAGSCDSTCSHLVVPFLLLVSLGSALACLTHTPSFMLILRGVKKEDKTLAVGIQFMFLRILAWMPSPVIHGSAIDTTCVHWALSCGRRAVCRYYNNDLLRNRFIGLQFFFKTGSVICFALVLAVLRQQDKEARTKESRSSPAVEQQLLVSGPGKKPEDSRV
Put plainly: Inhibition of OATP2B1-mediated estrone 3-sulfate uptake in MDCKII-OATP2B1 cells. The format is cell-based. The following applies: 0 to 316 μM.

Data set [2] deals with T1, OATP2B1. The conditions noted are these: OATP2B1-overexpressing Xenopus laevis oocytes; cited from earlier work.

Usually IC50 stands for the concentration needed to halve the response being measured. Turning to `COc1ccc([C@@H]2CC(=O)c3c(O)cc(O[C@@H]4O[C@H](CO[C@@H]5O[C@@H](C)[C@H](O)[C@@H](O)[C@H]5O)[C@@H](O)[C@H](O)[C@H]4O)cc3O2)cc1O` [Hesperidin, hesperidin], at OATP2B1 [1], the “inhibition at the concentrations tested” value is recorded as “no inhibition”. The IC50 on OATP2B1 [2] is 1920 nM.
